Among the data in patent publication US9238639B2, “Aromatic ring compound” (TAKEDA PHARMACEUTICAL COMPANY LIMITED, priority 2012, dated 2016) are inhibition values, retold here.

The target of the experiment is T1, human GOAT (Homo sapiens, UniProt Q96T53).
T1 construct: made in house; host or cells: Sf9 insect cells (BacToBac baculovirus, pFastBac1 vector); microsome fraction
T1 sequence (Q96T53 1-435): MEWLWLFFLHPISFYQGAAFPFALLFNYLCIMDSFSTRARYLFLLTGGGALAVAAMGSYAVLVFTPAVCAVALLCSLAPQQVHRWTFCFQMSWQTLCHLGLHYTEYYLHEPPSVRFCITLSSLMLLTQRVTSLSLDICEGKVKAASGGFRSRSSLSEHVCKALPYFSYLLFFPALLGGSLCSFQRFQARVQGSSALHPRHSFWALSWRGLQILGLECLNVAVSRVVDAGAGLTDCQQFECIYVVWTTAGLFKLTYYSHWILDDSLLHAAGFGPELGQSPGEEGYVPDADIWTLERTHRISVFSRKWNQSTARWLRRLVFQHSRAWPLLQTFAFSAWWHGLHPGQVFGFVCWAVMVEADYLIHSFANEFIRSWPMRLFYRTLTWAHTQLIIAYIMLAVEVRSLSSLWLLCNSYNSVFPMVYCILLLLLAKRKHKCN
The experiment can be described thus: GOAT enzyme activity measurement by HTRF method (human GOAT-expressing microsome fraction). The class given is biochemical. To be noted: 10 μM compound; human GOAT-expressing Sf9 microsome fraction; octanoyl-CoA and Ghrelin-biotin substrates; 0% control without compound, 100% control without enzyme. As for the experimental part: Human GOAT (Accession NO: EU518495) cDNA was amplified by PCR including reaction of (1) 98° C., 1 min, (2) 35 repeats of 98° C., 10 sec·65° C., 15 sec·72° C., 80 sec, and (3) 72° C., 5 min, using human stomach cDNA library (Takara Bio) as a template and Pyrobest DNA Polymerase (Takara Bio). The amplified fragment was treated with restriction enzymes, inserted into Stu I/Not I sites of pFastBacl (Invitrogen) by using Ligation High (TOYOBO), and transfected into ECOS JM109 (Nippon Gene) to construct pFB/hGOAT.
Production of Baculovirus and Preparation of Insect Cell Microsome Fraction
For preparation of baculovirus from pFB/hGOAT, BacToBac baculovirus expression system (Invitrogen) was used. The virus titer was measured by Real-Time PCR using SYBR Green (Takara Bio). Sf9 cells were infected with the obtained baculovirus at Multiplicity of Infection (MOI)=0.2, and cultured for 70 hr. The Sf9 cells were recovered, suspended in a suspension buffer (TBS (0.3 M NaCl), 1 mM DTT, 1 mM EDTA, Complete (Roche) (1 tablet/50 mL)), and the cells were disrupted twice on ice at 20000 rpm, 30 sec using a polytron homogenizer. The cell disruption solution was centrifuged at 1000 rpm for 10 min at 4° C., the supernatant was further ultracentrifuged at 40000 rpm for 30 min at 4° C. and the precipitate was recovered. The obtained precipitate was suspended in the suspension buffer used above to give a human GOAT-expressing microsome fraction. The protein level was measured using BCA Protein assay Reagent (PIERCE).
Enzyme Activity Measurement by HTRF Method
A compound solution (2 μL) diluted with an assay buffer containing 50 mM Tris-HCl (pH 7.5), 0.5% TWEEN20, and Complete to 15% DMSO and 90 μg/mL human GOAT-expressing microsome fraction (2 μL) were incubated at room temperature for 20 min, after which a substrate mixed solution (2 μL) containing 30 μM octanoyl-CoA (CHEM-IMPLEX) and 3 μM Ghrelin-biotin ([…]epsilon aminocaproic acid-biotin (Greiner Coutom synthesis)) was added to 384 white small volume plate (Greiner). After reaction for 20 min, 2 μL of citrate buffer (pH3) (mixed solution of 0.1 M citric acid (39.8 mL) and 0.2 M Na2HPO4 (10.2 mL)), 2 μL of 25 nM anti-active ghrelin antibody (produced in mouse), 5 μL of Eu(K)-Anti Mouse IgG Pab (Cis Bio) 100-fold diluted with HTRF detection buffer (Cis Bio) and 5 μL of streptavidin-Xlent (Cis Bio) 66.6-fold diluted with HTRF detection buffer (Cis Bio) were added. After incubation at room temperature for 1 hr or longer, the fluorescence values at 620 nm and 665 nm were measured by Envision (PerkinElmer). The data was calculated [(665 nm signal/620 nm signal)×10^4], and the inhibitory activity against human GOAT was shown by the data where 0% control was without compound, and 100% control was without enzyme.
On the technique in general: TR-FRET usually uses a lanthanide donor and a delayed reading to cut background.

In general, inhibition refers to the drop in the measured response relative to a control, in per cent. As to `CCOC(=O)Cc1csc2cc(OCc3ccc(Cl)cc3Cl)ccc12` [Example 1, Ethyl(6-((2,4-dichlorobenzyl)oxy)-1-benzothiophen-3-yl)acetate], the inhibition at 10 µM worked out at 69%.

With `O=C(O)Cc1csc2cc(OCc3ccc(Cl)cc3Cl)ccc12` [Example 2, (6-((2,4-Dichlorobenzyl)oxy)-1-benzothiophen-3-yl)acetic acid], the inhibition at 10 µM was 99.2%. Take `CCOC(=O)Cc1csc2cc(OCc3ccc(C)nc3C)ccc12` [Example 3, Ethyl(6-((2,6-dimethylpyridin-3-yl)methoxy)-1-benzothiophen-3-yl)acetate]: the inhibition at 10 µM came out at 92.8%. For `Cc1ccc(COc2ccc3c(CC(=O)O)csc3c2)c(C)n1` [Example 4, (6-((2,6-Dimethylpyridin-3-yl)methoxy)-1-benzothiophen-3-yl)acetic acid] the value was 99%. As for `COC(=O)Cc1csc2cc(OCc3ccc(Cl)cc3Cl)cc(C)c12` [Example 5, Methyl(6-((2,4-dichlorobenzyl)oxy)-4-methyl-1-benzothiophen-3-yl)acetate], the inhibition at 10 µM worked out at 84.4%.

On to `Cc1cc(OCc2ccc(Cl)cc2Cl)cc2scc(CC(=O)O)c12` [Example 6, (6-((2,4-Dichlorobenzyl)oxy)-4-methyl-1-benzothiophen-3-yl)acetic acid], for which the inhibition at 10 µM turned out to be 103%. Next, `COC(=O)Cc1csc2cc(OCc3cc(C)nn3C)cc(C)c12` [Example 7, Methyl(6-((1,3-dimethyl-1H-pyrazol-5-yl)methoxy)-4-methyl-1-benzothiophen-3-yl)acetate]: 94.7%; `Cc1cc(COc2cc(C)c3c(CC(=O)O)csc3c2)n(C)n1` [Example 8, (6-((1,3-Dimethyl-1H-pyrazol-5-yl)methoxy)-4-methyl-1-benzothiophen-3-yl)acetic acid]: 95.6%.

With `COC(=O)Cc1csc2cc(OCc3ccc(C(F)(F)F)nc3C)cc(C)c12` [Example 9, Methyl(4-methyl-6-((2-methyl-6-(trifluoromethyl)pyridin-3-yl)methoxy)-1-benzothiophen-3-yl)acetate], the inhibition at 10 µM came out at 93.8%.

In the case of `Cc1nc(C(F)(F)F)ccc1COc1cc(C)c2c(CC(=O)O)csc2c1` [Example 10, (4-Methyl-6-((2-methyl-6-(trifluoromethyl)pyridin-3-yl)methoxy)-1-benzothiophen-3-yl)acetic acid], the inhibition at 10 µM is 99.2%.

Turning to `COC(=O)Cc1csc2cc(OCc3cc(C(F)(F)F)nn3C)cc(C)c12` [Example 11, Methyl(4-methyl-6-((1-methyl-3-(trifluoromethyl)-1H-pyrazol-5-yl)methoxy)-1-benzothiophen-3-yl)acetate], the inhibition at 10 µM turned out to be 95.2%. For `Cc1cc(OCc2cc(C(F)(F)F)nn2C)cc2scc(CC(=O)O)c12` [Example 12, (4-Methyl-6-((1-methyl-3-(trifluoromethyl)-1H-pyrazol-5-yl)methoxy)-1-benzothiophen-3-yl)acetic acid] the value was 104%; for `COC(=O)Cc1csc2cc(OCc3ccc(C)nc3C)cc(Cl)c12` [Example 13, Methyl(4-chloro-6-((2,6-dimethylpyridin-3-yl)methoxy)-1-benzothiophen-3-yl)acetate], 96.5%; for `Cc1ccc(COc2cc(Cl)c3c(CC(=O)O)csc3c2)c(C)n1` [Example 14, (4-Chloro-6-((2,6-dimethylpyridin-3-yl)methoxy)-1-benzothiophen-3-yl)acetic acid], 107%. Next, `COC(=O)Cc1csc2cc(OCc3ccc(C(F)(F)F)nc3C)cc(Cl)c12` [Example 15, Methyl(4-chloro-6-((2-methyl-6-(trifluoromethyl)pyridin-3-yl)methoxy)-1-benzothiophen-3-yl)acetate]: 91.6%; `Cc1nc(C(F)(F)F)ccc1COc1cc(Cl)c2c(CC(=O)O)csc2c1` [Example 16, (4-Chloro-6-((2-methyl-6-(trifluoromethyl)pyridin-3-yl)methoxy)-1-benzothiophen-3-yl)acetic acid]: 101%; `CCOC(=O)Cc1csc2cc(OCc3cc(C(F)(F)F)nn3C)ccc12` [Example 17, Ethyl(6-((1-methyl-3-(trifluoromethyl)-1H-pyrazol-5-yl)methoxy)-1-benzothiophen-3-yl)acetate]: 88.9%. In the case of `Cn1nc(C(F)(F)F)cc1COc1ccc2c(CC(=O)O)csc2c1` [Example 18, (6-((1-Methyl-3-(trifluoromethyl)-1H-pyrazol-5-yl)methoxy)-1-benzothiophen-3-yl)acetic acid], the inhibition at 10 µM stood at 98.2%. Turning to `COC(=O)Cc1csc2cc(OCc3cc(C(F)(F)F)nn3C)cc(Cl)c12` [Example 21, Methyl(4-chloro-6-((1-methyl-3-(trifluoromethyl)-1H-pyrazol-5-yl)methoxy)-1-benzothiophen-3-yl)acetate], the inhibition at 10 µM came to 100%. With `Cn1nc(C(F)(F)F)cc1COc1cc(Cl)c2c(CC(=O)O)csc2c1` [Example 22, (4-Chloro-6-((1-methyl-3-(trifluoromethyl)-1H-pyrazol-5-yl)methoxy)-1-benzothiophen-3-yl)acetic acid], the inhibition at 10 µM came to 105%.

`COC(=O)Cc1csc2c(C)c(OCc3ccc(C(F)(F)F)nc3C)cc(C)c12` [Example 23, Methyl(4,7-dimethyl-6-((2-methyl-6-(trifluoromethyl)pyridin-3-yl)methoxy)-1-benzothiophen-3-yl)acetate]: the inhibition at 10 µM stood at 62.8%. Next, `Cc1nc(C(F)(F)F)ccc1COc1cc(C)c2c(CC(=O)O)csc2c1C` [Example 24, (4,7-Dimethyl-6-((2-methyl-6-(trifluoromethyl)pyridin-3-yl)methoxy)-1-benzothiophen-3-yl)acetic acid]: 105%; `COC(=O)Cc1csc2cc(OCc3cc(C)nn3C)cc(Cl)c12` [Example 25, Methyl(4-chloro-6-((1,3-dimethyl-1H-pyrazol-5-yl)methoxy)-1-benzothiophen-3-yl)acetate]: 97.4%. For the compound `Cc1cc(COc2cc(Cl)c3c(CC(=O)O)csc3c2)n(C)n1` [Example 26, (4-Chloro-6-((1,3-dimethyl-1H-pyrazol-5-yl)methoxy)-1-benzothiophen-3-yl)acetic acid], the inhibition at 10 µM amounted to 105%. For `COC(=O)Cc1csc2c(Cl)c(OCc3cc(C(F)(F)F)nn3C)cc(Cl)c12` [Example 27, Methyl(4,7-dichloro-6-((1-methyl-3-(trifluoromethyl)-1H-pyrazol-5-yl)methoxy)-1-benzothiophen-3-yl)acetate] the value was 92.7%. Regarding `Cn1nc(C(F)(F)F)cc1COc1cc(Cl)c2c(CC(=O)O)csc2c1Cl` [Example 28, (4,7-Dichloro-6-((1-methyl-3-(trifluoromethyl)-1H-pyrazol-5-yl)methoxy)-1-benzothiophen-3-yl)acetic acid], the inhibition at 10 µM stood at 105%. Next, `COC(=O)Cc1csc2c(Cl)c(OCc3ccc(C(F)(F)F)nc3C)cc(Cl)c12` [Example 29, Methyl(4,7-dichloro-6-((2-methyl-6-(trifluoromethyl)pyridin-3-yl)methoxy)-1-benzothiophen-3-yl)acetate]: 88.1%.
